# Results reported in publication PMC6001238, “Iterative Chemical Engineering of Vancomycin Leads to Novel Vancomycin Analogs With a High in Vitro Therapeutic Index” (Frontiers in Microbiology, 2018).
# Like-named read-outs stand apart in the source and are kept apart here.
# Experiments:
# [1] = test system: E. faecalis VRE 37; assay: MIC, broth microdilution, vancomycin-resistant E. faecalis VRE 37 (VanA); assay type: cell-based, Enterococcus faecalis; details: for MIC: Enterococcus faecalis VRE 37 (vancomycin-resistant), read-out: MIC; for MIC-fold improvement vs. vancomycin: VRE 37, ratio of MIC of vancomycin and MIC of analogue
# How it was run: (§1)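 Assayed by broth microdilution under CLSI antimicrobial testing rules. One case paired the analog or control drug with vancomycin at a 10 μM final concentration; water and inoculum-free broth were controls.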
# [2] = test system: human cervix carcinoma (HeLa) cells; assay: Cytostatic activity, HeLa cell proliferation; assay type: cell-based; details: mean ± SD of three experiments; highest concentration tested 250 µM; 4 days; read-out: Toxicity (IC50) HeLa
# How it was run: (§2)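 Readout: Coulter cell number after drug exposure at 37°C. Durations differ by line (L1210 2 days; CEM 3 days; HeLa 4 days). Stock suspension 300,000–500,000 cells/mL, diluted by mixing with compound. Endpoint: IC50 vs negative control.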
# [3] = test system: MRSA KS1; assay: MIC, broth microdilution, MRSA KS1; assay type: cell-based, Staphylococcus aureus; details: for MIC-fold improvement vs. vancomycin: MRSA KS1, ratio of MIC of vancomycin and MIC of analogue; for MIC: Staphylococcus aureus MRSA KS1, read-out: MIC
# How it was run: as §1
# [4] = test system: L1210, CEM and HeLa cell lines; assay: Cytostatic activity, average or summary over L1210, CEM and HeLa; assay type: cell-based; details: average of L1210, CEM and HeLa; read-out: Toxicity (IC50) Average
# How it was run: as §2
# [5] = test system: MRSA KS2; assay: MIC, broth microdilution, MRSA KS2; assay type: cell-based, Staphylococcus aureus; details: for MIC-fold improvement vs. vancomycin: MRSA KS2, ratio of MIC of vancomycin and MIC of analogue; for MIC: Staphylococcus aureus MRSA KS2, read-out: MIC
# How it was run: as §1
# [6] = test system: E. faecalis VRE 53; assay: MIC, broth microdilution, vancomycin-resistant E. faecalis VRE 53 (VanA); assay type: cell-based, Enterococcus faecalis; details: for MIC: Enterococcus faecalis VRE 53 (vancomycin-resistant), read-out: MIC; for MIC-fold improvement vs. vancomycin: VRE 53, ratio of MIC of vancomycin and MIC of analogue
# How it was run: as §1
# [7] = test system: S. aureus VSSA (ATCC 6538); assay: MIC, broth microdilution, vancomycin-sensitive S. aureus (VSSA/MSSA, ATCC 6538); assay type: cell-based, Staphylococcus aureus; details: for MIC: Staphylococcus aureus VSSA, read-out: MIC; for MIC-fold improvement vs. vancomycin: VSSA, ratio of MIC of vancomycin and MIC of analogue
# How it was run: as §1
# [8] = test system: human T-lymphocyte (CEM) cells; assay: Cytostatic activity, CEM cell proliferation; assay type: cell-based; details: mean ± SD of three experiments; highest concentration tested 250 µM; 3 days; read-out: Toxicity (IC50) CEM
# How it was run: as §2
# [9] = test system: E. faecalis VSE 1; assay: MIC, broth microdilution, vancomycin-sensitive E. faecalis (VSE 1); assay type: cell-based, Enterococcus faecalis; details: for MIC: Enterococcus faecalis VSE 1 (vancomycin-sensitive), read-out: MIC; for MIC-fold improvement vs. vancomycin: VSE 1, ratio of MIC of vancomycin and MIC of analogue
# How it was run: as §1
# [10] = test system: Murine leukemia (L1210) cells; assay: Cytostatic activity, L1210 cell proliferation; assay type: cell-based; details: mean ± SD of three experiments; highest concentration tested 250 µM; 2 days; read-out: Toxicity (IC50) L1210
# How it was run: as §2
# [11] = test system: MRSA KS6; assay: MIC, broth microdilution, MRSA KS6; assay type: cell-based, Staphylococcus aureus; details: for MIC-fold improvement vs. vancomycin: MRSA KS6, ratio of MIC of vancomycin and MIC of analogue; for MIC: Staphylococcus aureus MRSA KS6, read-out: MIC
# How it was run: as §1
# [12] = test system: MRSA KS89; assay: MIC, broth microdilution, MRSA KS89; assay type: cell-based, Staphylococcus aureus; details: for MIC-fold improvement vs. vancomycin: ratio of MIC of vancomycin and MIC of analogue; for MIC: read-out: MIC
# How it was run: as §1
# [13] = test system: E. faecalis VRE 6; assay: MIC, broth microdilution, vancomycin-resistant E. faecalis VRE 6 (VanA); assay type: cell-based, Enterococcus faecalis; details: for MIC: Enterococcus faecalis VRE 6 (vancomycin-resistant), read-out: MIC; for MIC-fold improvement vs. vancomycin: VRE 6, ratio of MIC of vancomycin and MIC of analogue
# How it was run: as §1
# [14] = test system: S. aureus VRSA; assay: MIC, broth microdilution, vancomycin-resistant S. aureus (VRSA); assay type: cell-based, Staphylococcus aureus; details: for MIC: Staphylococcus aureus VRSA, read-out: MIC; for MIC-fold improvement vs. vancomycin: VRSA, ratio of MIC of vancomycin and MIC of analogue
# How it was run: as §1
# [15] = test system: E. faecalis VRE 29; assay: MIC, broth microdilution, vancomycin-resistant E. faecalis VRE 29 (VanA); assay type: cell-based, Enterococcus faecalis; details: for MIC: Enterococcus faecalis VRE 29 (vancomycin-resistant), read-out: MIC; for MIC-fold improvement vs. vancomycin: VRE 29, ratio of MIC of vancomycin and MIC of analogue
# How it was run: as §1
# [16] = test system: S. aureus VISA/HIP5827; assay: MIC, broth microdilution, vancomycin-intermediate S. aureus VISA HIP5827; assay type: cell-based, Staphylococcus aureus; details: for MIC: Staphylococcus aureus VISA/HIP5827, read-out: MIC; for MIC-fold improvement vs. vancomycin: VISA/HIP5827, ratio of MIC of vancomycin and MIC of analogue
# How it was run: as §1
MIC [1],MIC-fold improvement vs. vancomycin [1],MIC-fold improvement vs. vancomycin [3],MIC [3],MIC-fold improvement vs. vancomycin [5],MIC [5],MIC [6],MIC-fold improvement vs. vancomycin [6],MIC [7],MIC-fold improvement vs. vancomycin [7],MIC [9],MIC-fold improvement vs. vancomycin [9],MIC-fold improvement vs. vancomycin [11],MIC [11],MIC [13],MIC-fold improvement vs. vancomycin [13],SMILES,IC50 [2],IC50 [4],IC50 [8],IC50 [10],also measured
1.56 µM,256,1,0.78 µM,4,0.20 µM,3.13 µM,128,0.20 µM,4,0.39 µM,4,4,0.20 µM,0.39 µM,513,CCCCCCCc1ccc(C(=O)NCCCNC(=O)C2NC(=O)C3NC(=O)C(NC(=O)C4NC(=O)C(CC(N)=O)NC(=O)C(NC(=O)C(CC(C)C)NC)C(O)c5ccc(c(Cl)c5)Oc5cc4cc(c5OC4OC(CO)C(O)C(O)C4OC4CC(C)(N)C(O)C(C)O4)Oc4ccc(cc4Cl)C3O)c3ccc(O)c(c3)-c3c(O)cc(O)cc32)cc1 (stereo not drawn) [Vanc-31],86 ± 14 µM,37 µM,17 ± 5 µM,8.8 ± 0.6 µM,MIC-fold improvement vs. vancomycin ([12]; MRSA KS8): 4; MIC ([12]; Staphylococcus aureus MRSA KS8): 0.20 µM; MIC [14]: 0.78 µM; MIC-fold improvement vs. vancomycin [14]: 128; MIC [15]: 1.56 µM; MIC-fold improvement vs. vancomycin [15]: 256; MIC [16]: 0.05 µM; MIC-fold improvement vs. vancomycin [16]: 128
12.5 µM,64,2,0.39 µM,2,0.39 µM,12.5 µM,32,0.78 µM,1,0.78 µM,2,1,0.78 µM,6.25 µM,32,CN[C@H](CC(C)C)C(=O)N[C@H]1C(=O)N[C@@H](CC(N)=O)C(=O)N[C@H]2C(=O)N[C@H]3C(=O)N[C@H](C(=O)N[C@H](C(=O)NCC(=O)Nc4cccc(F)c4)c4cc(O)cc(O)c4-c4cc3ccc4O)[C@H](O)c3ccc(c(Cl)c3)Oc3cc2cc(c3O[C@@H]2O[C@H](CO)[C@@H](O)[C@H](O)[C@H]2O[C@H]2C[C@](C)(N)[C@H](O)[C@H](C)O2)Oc2ccc(cc2Cl)[C@H]1O [Vanc-10],214 ± 51 µM,238 µM,> 250 µM,> 250 µM,MIC-fold improvement vs. vancomycin ([12]; MRSA KS8): 2; MIC ([12]; Staphylococcus aureus MRSA KS8): 0.39 µM; MIC [14]: 12.5 µM; MIC-fold improvement vs. vancomycin [14]: 8; MIC [15]: 12.5 µM; MIC-fold improvement vs. vancomycin [15]: 32; MIC [16]: 0.78 µM; MIC-fold improvement vs. vancomycin [16]: 8
6.25 µM,64,4,0.20 µM,4,0.20 µM,25 µM,16,0.20 µM,4,0.10 µM,16,4,0.20 µM,6.25 µM,32,CCCCCCn1cc(-c2ccc(NC(=O)CNC(=O)C3NC(=O)C4NC(=O)C(NC(=O)C5NC(=O)C(CC(N)=O)NC(=O)C(NC(=O)C(CC(C)C)NC)C(O)c6ccc(c(Cl)c6)Oc6cc5cc(c6OC5OC(CO)C(O)C(O)C5OC5CC(C)(N)C(O)C(C)O5)Oc5ccc(cc5Cl)C4O)c4ccc(O)c(c4)-c4c(O)cc(O)cc43)cc2)nn1 (stereo not drawn) [Vanc-92],98 ± 12 µM,75 µM,31 ± 7 µM,95 ± 75 µM,MIC-fold improvement vs. vancomycin ([12]; MRSA KS8 (head; KS89 in title)): 4; MIC ([12]; Staphylococcus aureus MRSA KS8 (head; KS89 in title)): 0.20 µM; MIC [14]: 0.78 µM; MIC-fold improvement vs. vancomycin [14]: 128; MIC [15]: 6.25 µM; MIC-fold improvement vs. vancomycin [15]: 64; MIC [16]: 0.78 µM; MIC-fold improvement vs. vancomycin [16]: 8
